{
  "source": "patent US9012166B2",
  "about": "“Method for assaying histone methylation enzyme activity” (Kyushu Institute of Technology, priority 2010, dated 2015)",
  "key": {"Set9": {"target": "T1, Set9 (Homo sapiens, UniProt Q8WTS6)", "T1 sequence (Q8WTS6 1-366)": "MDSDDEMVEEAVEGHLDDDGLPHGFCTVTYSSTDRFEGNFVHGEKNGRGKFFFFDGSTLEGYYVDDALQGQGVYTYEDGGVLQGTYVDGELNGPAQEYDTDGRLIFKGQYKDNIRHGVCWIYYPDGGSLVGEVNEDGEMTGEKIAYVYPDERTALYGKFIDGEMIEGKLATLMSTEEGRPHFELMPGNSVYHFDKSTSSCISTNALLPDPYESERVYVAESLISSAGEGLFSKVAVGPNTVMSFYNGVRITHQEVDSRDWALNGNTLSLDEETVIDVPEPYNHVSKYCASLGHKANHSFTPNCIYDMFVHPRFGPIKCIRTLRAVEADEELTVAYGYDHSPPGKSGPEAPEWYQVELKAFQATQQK", "test": "Western blot evaluation of histone methyltransferase inhibitor, Set9", "format": "biochemical", "settings": "FIG. 17", "protocol": "(§1) To examine whether the activity of a histone methyltransferase inhibitor could be evaluated by an assay for measuring histone methyltransferase activity using a peptidyl MCA, the assay for measuring histone methyltransferase activity was attempted. However, the activity of gliotoxin as a histone methyltransferase inhibitor was evaluated by Western blot, prior to the assay for measuring histone methyltransferase activity. Gliotoxin is known not to inhibit the methylation activity of Set9 but to inhibit the methylation activity of G9a. […] The following assay for measuring histone methyltransferase activity was carried out in order to examine whether the same results as those from the Western blot could also be obtained from the assay for measuring histone methyltransferase activity."}, "G9a": {"target": "T2, G9a (Mus musculus, UniProt Q9Z148)", "T2 sequence (Q9Z148 1-1263)": "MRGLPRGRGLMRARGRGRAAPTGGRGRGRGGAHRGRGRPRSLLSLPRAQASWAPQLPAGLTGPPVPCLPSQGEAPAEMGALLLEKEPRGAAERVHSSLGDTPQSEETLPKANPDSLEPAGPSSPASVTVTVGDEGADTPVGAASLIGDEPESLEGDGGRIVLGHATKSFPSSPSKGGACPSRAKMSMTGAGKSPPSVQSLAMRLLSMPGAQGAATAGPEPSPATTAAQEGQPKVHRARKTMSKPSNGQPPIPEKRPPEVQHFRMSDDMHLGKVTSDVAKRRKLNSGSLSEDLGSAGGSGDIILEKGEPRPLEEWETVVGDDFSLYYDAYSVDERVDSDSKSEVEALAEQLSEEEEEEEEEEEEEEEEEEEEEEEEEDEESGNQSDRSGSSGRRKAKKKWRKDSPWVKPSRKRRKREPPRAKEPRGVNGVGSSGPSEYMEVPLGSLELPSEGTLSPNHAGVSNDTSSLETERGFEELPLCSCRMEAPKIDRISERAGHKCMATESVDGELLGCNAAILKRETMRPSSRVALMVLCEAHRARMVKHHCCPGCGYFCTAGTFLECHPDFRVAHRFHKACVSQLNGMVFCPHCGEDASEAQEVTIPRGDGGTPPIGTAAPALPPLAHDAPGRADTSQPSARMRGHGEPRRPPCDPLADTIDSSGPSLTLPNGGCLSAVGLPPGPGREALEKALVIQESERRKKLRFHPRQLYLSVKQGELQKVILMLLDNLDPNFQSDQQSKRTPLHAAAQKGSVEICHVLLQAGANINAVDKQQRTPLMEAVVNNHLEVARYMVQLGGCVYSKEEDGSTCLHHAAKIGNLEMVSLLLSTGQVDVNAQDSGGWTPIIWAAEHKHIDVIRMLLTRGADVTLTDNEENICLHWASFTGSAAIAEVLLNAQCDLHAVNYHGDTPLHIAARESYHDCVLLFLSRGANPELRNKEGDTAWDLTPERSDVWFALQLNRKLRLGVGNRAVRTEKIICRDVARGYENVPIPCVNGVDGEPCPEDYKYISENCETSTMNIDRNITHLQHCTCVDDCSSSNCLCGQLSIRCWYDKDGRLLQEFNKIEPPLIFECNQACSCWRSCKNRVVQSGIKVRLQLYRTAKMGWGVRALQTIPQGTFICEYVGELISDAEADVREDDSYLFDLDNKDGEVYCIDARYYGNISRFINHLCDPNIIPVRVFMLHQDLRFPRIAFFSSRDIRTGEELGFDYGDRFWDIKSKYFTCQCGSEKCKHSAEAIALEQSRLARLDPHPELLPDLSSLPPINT", "test": "Western blot evaluation of histone methyltransferase inhibitor, G9a", "format": "biochemical", "settings": "FIG. 17", "protocol": "as §1"}},
  "data": [
    {"smiles": "CN1C(=O)[C@]23CC4=CC=C[C@H](O)[C@H]4N2C(=O)[C@@]1(CO)SS3", "note": "[gliotoxin]", "values": [
      {"measurement": "inhibition of the methylation of Set9 (Western blot)", "setting": "Set9", "value": "did not inhibit"},
      {"measurement": "inhibition of the methylation of G9a (Western blot)", "setting": "G9a", "value": "inhibited"}
    ]}
  ]
}
